Results published in ChEMBL document CHEMBL5247611, “A bibliometric analysis of PROTAC from 2001 to 2021” (Eur J Med Chem, 2022).
Each block holds one molecule with its values, some of them ahead of it.

How the values were obtained:
[1] = target: Protein cereblon/Cyclin-dependent kinase 6 (Homo sapiens, UniProt Q00534+Q96SW2); test: Protac activity at CRBN/CDK6 in human MDA-MB-231 cells; format: cell-based
[2] = target: Protein cereblon/Cyclin-dependent kinase 4 (Homo sapiens, UniProt P11802+Q96SW2); test: Protac activity at CRBN/CDK4 in human MDA-MB-231 cells; format: cell-based
Chain of Protein cereblon/Cyclin-dependent kinase 4 (P11802 whole entry): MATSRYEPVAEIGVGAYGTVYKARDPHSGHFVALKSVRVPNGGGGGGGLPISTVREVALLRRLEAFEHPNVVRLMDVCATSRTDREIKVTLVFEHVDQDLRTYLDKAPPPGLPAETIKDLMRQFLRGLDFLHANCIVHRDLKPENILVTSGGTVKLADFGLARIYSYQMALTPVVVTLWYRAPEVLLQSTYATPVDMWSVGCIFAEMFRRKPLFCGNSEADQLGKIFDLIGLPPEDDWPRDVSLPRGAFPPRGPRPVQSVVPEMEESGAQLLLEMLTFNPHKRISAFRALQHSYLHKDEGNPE
Chain of Protein cereblon/Cyclin-dependent kinase 4 (Q96SW2 whole entry): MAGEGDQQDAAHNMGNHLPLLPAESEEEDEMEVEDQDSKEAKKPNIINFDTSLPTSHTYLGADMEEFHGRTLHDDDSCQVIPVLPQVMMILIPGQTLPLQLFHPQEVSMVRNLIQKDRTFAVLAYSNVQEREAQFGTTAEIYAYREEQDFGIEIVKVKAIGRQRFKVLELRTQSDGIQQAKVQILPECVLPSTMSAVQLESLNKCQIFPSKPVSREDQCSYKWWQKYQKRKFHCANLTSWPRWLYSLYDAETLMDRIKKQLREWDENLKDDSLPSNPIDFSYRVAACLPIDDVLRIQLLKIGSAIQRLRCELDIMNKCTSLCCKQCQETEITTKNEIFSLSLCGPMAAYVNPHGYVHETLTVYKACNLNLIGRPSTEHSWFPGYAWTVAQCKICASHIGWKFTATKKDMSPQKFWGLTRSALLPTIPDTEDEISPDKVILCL

BaF3 = test: Antiproliferative activity against mouse BaF3 cells harboring EGFR L858R/T790M mutant assessed as cell growth inhibition incubated for 72 hrs; format: functional, cell-based; conditions: BaF3, 72 h
[3] = target: Protein fem-1 homolog B/Bromodomain-containing protein 4 (Homo sapiens, UniProt O60885+Q9UK73); test: Protac activity at FEM1B/BRD4 in human HEK293T cells assessed as degradation of BRD4 incubated for 8 hrs by Western blot analysis; format: cell-based
[4] = target: T1, von Hippel-Lindau disease tumor suppressor/Bromodomain-containing protein 2 (Homo sapiens, UniProt P25440+P40337); test: Protac activity at VHL/BRD2 in HEK293 cells assessed as degradation of BRD2 incubated for 4 hrs by Western blot analysis; format: cell-based
T1 sequence (P25440 whole entry): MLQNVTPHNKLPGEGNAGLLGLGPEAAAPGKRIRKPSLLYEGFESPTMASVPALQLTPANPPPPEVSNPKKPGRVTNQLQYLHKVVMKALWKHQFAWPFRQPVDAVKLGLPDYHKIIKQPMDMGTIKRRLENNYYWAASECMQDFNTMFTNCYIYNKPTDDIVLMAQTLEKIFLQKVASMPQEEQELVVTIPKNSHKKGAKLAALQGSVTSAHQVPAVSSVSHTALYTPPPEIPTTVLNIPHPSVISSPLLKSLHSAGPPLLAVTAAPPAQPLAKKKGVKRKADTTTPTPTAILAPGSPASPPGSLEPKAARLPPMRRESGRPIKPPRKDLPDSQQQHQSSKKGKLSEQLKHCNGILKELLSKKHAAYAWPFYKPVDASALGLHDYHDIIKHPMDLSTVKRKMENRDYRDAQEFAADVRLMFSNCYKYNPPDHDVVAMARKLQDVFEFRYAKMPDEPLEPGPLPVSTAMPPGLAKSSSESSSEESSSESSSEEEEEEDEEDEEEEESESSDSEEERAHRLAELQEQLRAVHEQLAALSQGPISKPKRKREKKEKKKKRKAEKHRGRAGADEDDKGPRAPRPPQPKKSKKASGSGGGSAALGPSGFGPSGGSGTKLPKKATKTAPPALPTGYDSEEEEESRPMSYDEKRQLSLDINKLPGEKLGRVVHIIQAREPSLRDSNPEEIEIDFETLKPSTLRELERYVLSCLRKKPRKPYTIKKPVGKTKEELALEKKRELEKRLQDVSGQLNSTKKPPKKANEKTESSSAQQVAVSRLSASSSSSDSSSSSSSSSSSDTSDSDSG
T1 sequence (P40337 whole entry): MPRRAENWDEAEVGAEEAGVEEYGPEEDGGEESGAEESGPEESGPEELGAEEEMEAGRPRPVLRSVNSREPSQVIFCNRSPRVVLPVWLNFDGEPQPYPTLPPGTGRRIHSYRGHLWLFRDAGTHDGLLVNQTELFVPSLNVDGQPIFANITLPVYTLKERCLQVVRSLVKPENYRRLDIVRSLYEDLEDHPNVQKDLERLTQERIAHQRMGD

[5] = target: T2, von Hippel-Lindau disease tumor suppressor/Bromodomain-containing protein 4 (Homo sapiens, UniProt O60885+P40337); test: Protac activity at VHL/BRD4 in HEK293 cells assessed as degradation of BRD4 incubated for 4 hrs by Western blot analysis; format: cell-based
T2 sequence (P40337 whole entry, looked up, other chains not shown): as the sequence (P40337 whole entry) above

[6] = target: T3, von Hippel-Lindau disease tumor suppressor/Bromodomain-containing protein 3 (Homo sapiens, UniProt P40337+Q15059); test: Protac activity at VHL/BRD3 in HEK293 cells assessed as degradation of BRD3 incubated for 4 hrs by Western blot analysis; format: cell-based
T3 sequence (Q15059 whole entry): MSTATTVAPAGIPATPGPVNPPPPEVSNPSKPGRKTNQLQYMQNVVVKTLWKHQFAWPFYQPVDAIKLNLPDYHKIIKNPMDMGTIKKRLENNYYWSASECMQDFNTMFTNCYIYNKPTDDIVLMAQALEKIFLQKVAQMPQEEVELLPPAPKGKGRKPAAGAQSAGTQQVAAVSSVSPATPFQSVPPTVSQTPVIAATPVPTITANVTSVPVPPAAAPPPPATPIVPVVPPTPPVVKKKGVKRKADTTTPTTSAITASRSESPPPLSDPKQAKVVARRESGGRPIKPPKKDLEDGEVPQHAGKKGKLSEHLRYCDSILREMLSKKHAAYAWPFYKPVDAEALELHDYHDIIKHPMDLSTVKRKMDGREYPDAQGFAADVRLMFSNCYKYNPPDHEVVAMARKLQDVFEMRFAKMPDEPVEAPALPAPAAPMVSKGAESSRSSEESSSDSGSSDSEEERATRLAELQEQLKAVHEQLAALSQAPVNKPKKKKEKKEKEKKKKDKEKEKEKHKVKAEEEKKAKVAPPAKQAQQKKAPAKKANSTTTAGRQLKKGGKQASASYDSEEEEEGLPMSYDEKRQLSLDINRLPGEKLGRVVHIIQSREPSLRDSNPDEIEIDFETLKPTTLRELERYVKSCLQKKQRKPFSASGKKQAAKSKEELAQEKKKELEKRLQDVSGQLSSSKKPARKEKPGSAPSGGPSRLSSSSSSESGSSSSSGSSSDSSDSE
T3 sequence (P40337 whole entry): as the sequence (P40337 whole entry) above

[7] = Cytotoxicity against HEK293 cells assessed as inhibition of cell growth; format: toxicity, cell-based; conditions: human
[8] = target: T2, von Hippel-Lindau disease tumor suppressor/Bromodomain-containing protein 4; test: Protac activity at VHL/BRD4 in human HCT-116 cells assessed as degradation of BRD4 incubated for 24 hrs by immunoblot assay; format: cell-based
MM1.S = test: Antiproliferative activity against human MM1.S cells incubated for 72 hrs by MTS assay; format: functional, cell-based
HeLa = test: Antiproliferative activity against human HeLa cells; format: functional, cell-based
T47D = test: Antiproliferative activity against human T47D cells; format: functional, cell-based
OVCAR-8 = test: Antiproliferative activity against human OVCAR-8 cells; format: functional, cell-based
MCF7 [9] = test: Antiproliferative activity against human MCF7 cells assessed as cell growth inhibition incubated for 6 days with media replacement for every 2 to 3 days by MTT assay; format: functional, cell-based
[10] = target: von Hippel-Lindau disease tumor suppressor/Estrogen receptor (Homo sapiens, UniProt P03372+P40337); test: Protac activity at VHL/ER alpha in human MCF7 cells assessed as degradation of ER alpha incubated for 6 hrs by Western blot analysis; format: cell-based
NCI-H358 = test: Antiproliferative activity against human NCI-H358 cells assessed as inhibition of cell growth incubated for 5 days by celltiter-glo luminescent cell viability assay; format: functional, cell-based; conditions: NCI-H358, 120 h
[11] = target: T4, von Hippel-Lindau disease tumor suppressor/GTPase KRas (Homo sapiens, UniProt P01116+P40337, G12C); test: Protac activity at VHL/KRAS G12C mutant in human NCI-H2030 cells assessed as degradation of KRAS G12C mutant incubated for 24 hrs by immunoblot assay; format: cell-based
T4 sequence (P01116 whole entry G12C, stated change not applied): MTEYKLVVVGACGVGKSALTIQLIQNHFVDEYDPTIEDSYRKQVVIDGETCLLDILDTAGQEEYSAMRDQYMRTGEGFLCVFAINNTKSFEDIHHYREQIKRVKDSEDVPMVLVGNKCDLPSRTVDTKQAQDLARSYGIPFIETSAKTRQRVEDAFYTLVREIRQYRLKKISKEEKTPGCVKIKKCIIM
T4 sequence (P40337 whole entry, stated change not applied): as the sequence (P40337 whole entry) above

[12] = target: T4, von Hippel-Lindau disease tumor suppressor/GTPase KRas; test: Protac activity at VHL/KRAS G12C mutant in human NCI-H358 cells assessed as degradation of KRAS G12C mutant incubated for 24 hrs by immunoblot assay; format: cell-based
[13] = target: T4, von Hippel-Lindau disease tumor suppressor/GTPase KRas; test: Protac activity at VHL/KRAS G12C mutant in human NCI-H23 cells assessed as degradation of KRAS G12C mutant incubated for 24 hrs by immunoblot assay; format: cell-based
[14] = target: T4, von Hippel-Lindau disease tumor suppressor/GTPase KRas; test: Protac activity at VHL/KRAS G12C mutant in human SW1573 cells assessed as degradation of KRAS G12C mutant incubated for 24 hrs by immunoblot assay; format: cell-based
[15] = target: T4, von Hippel-Lindau disease tumor suppressor/GTPase KRas; test: Protac activity at VHL/KRAS G12C mutant in human MIA PaCa-2 cells assessed as degradation of KRAS G12C mutant incubated for 24 hrs by immunoblot assay; format: cell-based
[16] = target: von Hippel-Lindau disease tumor suppressor/Epidermal growth factor receptor (Homo sapiens, UniProt P00533+P40337); test: Protac activity at VHL/wildtype EGFR in human OVCAR-8 cells assessed as degradation of wild type EGFR incubated for 24 hrs by immunoblot assay; format: cell-based
[17] = target: von Hippel-Lindau disease tumor suppressor/Histone deacetylase 3 (Homo sapiens, UniProt O15379+P40337); test: Protac activity at VHL/HDAC3 in human MDA-MB-468 assessed as degradation of HDAC3 incubated for 14 hrs by Western blot analysis; format: cell-based
[18] = target: Protein cereblon/Protein deacetylase HDAC6 (Homo sapiens, UniProt Q96SW2+Q9UBN7); test: Protac activity at CRBN/HDAC6 in human MM1.S assessed as degradation of HDAC6 incubated for 6 hrs by ELISA; format: cell-based
[19] = target: Protein cereblon/GTPase KRas (Homo sapiens, UniProt P01116+Q96SW2, G12C); test: Protac activity at CRBN/KRAS G12C mutant in human NCI-H358 cells assessed as degradation of KRAS G12C mutant; format: cell-based
MCF7 [20] = test: Antiproliferative activity against human MCF7 cells assessed as inhibition of cell growth measured after 5 days by PrestoBlue cell viability assay; format: functional, cell-based; conditions: MCF7, 120 h
[21] = target: T3, von Hippel-Lindau disease tumor suppressor/Bromodomain-containing protein 3; test: Protac activity at VHL/BRD3 in human HeLa cells assessed as degradation of BRD3 incubated for 24 hrs by Western blotting analysis; format: cell-based
[22] = target: T1, von Hippel-Lindau disease tumor suppressor/Bromodomain-containing protein 2; test: Protac activity at VHL/BRD2 in human HeLa cells assessed as degradation of BRD2 incubated for 24 hrs by Western blotting analysis; format: cell-based
[23] = target: T2, von Hippel-Lindau disease tumor suppressor/Bromodomain-containing protein 4; test: Protac activity at VHL/BRD4 in human HeLa cells assessed as degradation of BRD4 incubated for 24 hrs by Western blotting analysis; format: cell-based
MV4-11 = test: Antiproliferative activity against human MV4-11 cells incubated for 48 to 72 hrs by celltiter-glo luminescent cell viability assay; format: functional, cell-based
[24] = target: Protein cereblon/Bromodomain-containing protein 4 (Homo sapiens, UniProt O60885+Q96SW2); test: Protac activity at CRBN/BRD4 (unknown origin); format: protein assay
LNCaP = test: Antiproliferative activity against human LNCaP cells; format: functional, cell-based
[25] = target: Androgen receptor (Homo sapiens) (UniProt P10275); test: Binding affinity to androgen receptor (unknown origin) at 10 uM relative to control
[26] = target: von Hippel-Lindau disease tumor suppressor/Cyclin-dependent kinase 6 (Homo sapiens, UniProt P40337+Q00534); test: Protac activity at VHL/CDK6 in human MM1.S cells assessed as degradation of CDK6 incubated for 16 hrs by immunoblot assay; format: cell-based
Chain of von Hippel-Lindau disease tumor suppressor/Cyclin-dependent kinase 6 (Q00534 whole entry): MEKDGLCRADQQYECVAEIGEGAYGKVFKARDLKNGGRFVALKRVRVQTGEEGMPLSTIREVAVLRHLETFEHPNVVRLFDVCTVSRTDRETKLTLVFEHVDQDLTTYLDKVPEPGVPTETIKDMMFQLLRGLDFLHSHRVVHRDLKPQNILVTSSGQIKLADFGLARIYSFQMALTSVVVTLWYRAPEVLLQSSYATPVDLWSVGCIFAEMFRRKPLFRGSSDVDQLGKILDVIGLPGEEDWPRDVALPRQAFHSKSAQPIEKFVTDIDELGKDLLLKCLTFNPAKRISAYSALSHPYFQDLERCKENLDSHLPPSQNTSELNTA
Chain of von Hippel-Lindau disease tumor suppressor/Cyclin-dependent kinase 6 (P40337 whole entry): as the sequence (P40337 whole entry) above

Chain of Protein cereblon/Cyclin-dependent kinase 6 (Q00534 whole entry): as the sequence (Q00534 whole entry) above
Chain of Protein cereblon/Cyclin-dependent kinase 6 (Q96SW2 whole entry): as the sequence (Q96SW2 whole entry) above

SMILES: C#CCCN(C(=O)CCl)c1ccc2c(c1)OCCN2CC(=O)NCCCCNC(=O)C[C@@H]1N=C(c2ccc(Cl)cc2)c2c(sc(C)c2C)-n2c(C)nnc21
- EC50 [3]: 250 nM

SMILES: Cc1ncsc1-c1ccc(CNC(=O)[C@H]2C[C@H](O)CN2C(=O)[C@H](NC(=O)COCC(C)(COCCOCCOCCNC(=O)C[C@H]2N=C(c3ccc(Cl)cc3)c3c(sc(C)c3C)-n3c(C)nnc32)COCCOCCOCCNC(=O)C[C@H]2N=C(c3ccc(Cl)cc3)c3c(sc(C)c3C)-n3c(C)nnc32)C(C)(C)C)cc1
- EC50 [4]: 1.1 nM
- EC50 [5]: 0.7 nM
- EC50 [6]: 3.3 nM
- IC50 [7]: 1.1 nM

SMILES: COc1cc(C(=O)NCCOCCOCCOCCNC(=O)C[C@@H]2N=C(c3ccc(Cl)cc3)c3c(sc(C)c3C)-n3c(C)nnc32)ccc1NC(=O)[C@@H]1N[C@@H](CC(C)(C)C)[C@](C#N)(c2ccc(Cl)cc2F)[C@H]1c1cccc(Cl)c1F
- EC50 [8]: 23.1 nM

SMILES: Cc1ncsc1-c1ccc(CNC(=O)[C@@H]2C[C@@H](OC(=O)CCCCn3cc(NC(=O)CC[C@@H](NC(=O)c4ccc(NCc5cnc6nc(N)[nH]c(=O)c6n5)cc4)C(=O)O)nn3)CN2C(=O)[C@@H](NC(=O)COCCCOCCNC(=O)C[C@@H]2N=C(c3ccc(Cl)cc3)c3c(sc(C)c3C)-n3c(C)nnc32)C(C)(C)C)cc1
- IC50 (HeLa): 246 nM
- IC50 (T47D): 18 nM
- IC50 (OVCAR-8): 297 nM

SMILES: Cc1ncsc1-c1ccc([C@@H](C)NC(=O)[C@H]2C[C@H](O)CN2C(=O)[C@H](NC(=O)CCCCOc2ccc(CCNC(=O)c3ccc(C(=O)c4c(-c5ccc(O)cc5)sc5cc(O)ccc45)cc3)cc2)C(C)(C)C)cc1
- IC50 (MCF7 [9]): 13.2 nM
- EC50 [10]: 1.1 nM

SMILES: C=C(F)C(=O)N1CCN(c2nc(O[C@@H]3CCCN3CCCOCCC(=O)N[C@H](C(=O)N3C[C@H](O)C[C@H]3C(=O)NCc3ccc(-c4scnc4C)cc3)C(C)(C)C)nc3c2CCN(c2cccc4cccc(Cl)c24)C3)C[C@H]1CC#N
- EC50 [11]: 250 nM
- EC50 [12]: 250 nM
- EC50 [13]: 250 nM
- EC50 [14]: 250 nM
- EC50 [15]: 250 nM

SMILES: Cc1ncsc1-c1ccc(CNC(=O)[C@@H]2C[C@@H](O)CN2C(=O)[C@@H](NC(=O)COCCOCCOCCOc2ccc(-c3ccc4ncnc(Nc5ccc(OCc6cccc(F)c6)c(Cl)c5)c4c3)cc2)C(C)(C)C)cc1
- EC50 [16]: 39.2 nM

SMILES: CCCNNC(=O)c1ccc(-c2ccc(NC(=O)CCCCCCC(=O)NC(C(=O)N3C[C@@H](O)C[C@@H]3C(=O)N[C@H](C)c3ccc(-c4scnc4C)cc3)C(C)(C)C)cc2)cc1 (stereo not given in full)
- EC50 [17]: 42 nM

SMILES: COc1cc(Cl)c(-c2cc(Cl)ccc2Cl)cc1C(=O)N1CCN(C(=O)/C=C/C(=O)NCCCCCCNc2cccc3c2C(=O)N(C2CCC(=O)NC2=O)C3=O)CC1 (stereo not given)
- EC50 [19]: 1250 nM

SMILES: CCN(CCCCCCCC(=O)NC(C(=O)N1C[C@@H](O)C[C@@H]1C(=O)N[C@H](C)c1ccc(-c2scnc2C)cc1)C(C)(C)C)CCOc1ccc(C(=O)c2c(-c3ccc(O)cc3)sc3cc(O)ccc23)cc1 (stereo not given in full)
- IC50 (MCF7 [20]): 0.8 nM

SMILES: CC1(C)C(=O)N(c2ccc(C#N)c(C(F)(F)F)c2)C(=S)N1COCCOCCOn1cc(CCCCCC(=O)CC23CC4CC(CC(C4)C2)C3)nn1
- IC50 (LNCaP): 1750 nM
- Activity [25]: 82.6%

The next lines start with the values.

- EC50 [1]: 34.1 nM
- EC50 [2]: 12.9 nM
SMILES: CC(=O)C1=C(O)N(C2CCCC2)c2nc(Nc3ccc(N4CCN(Cc5cn(CCCCCNc6cccc7c6C(=O)N(C6CCC(=O)NC6=O)C7=O)nn5)CC4)cn3)ncc2C1C (stereo not given)

- IC50 (BaF3): 96 nM
SMILES: O=C1CCC(N2C(=O)c3cccc(NCCOCCOCCOCCN4CCN(c5ccc(-c6ccc7c(c6)C(=O)N(C(C(=O)Nc6nccs6)c6ccccc6)C7)cn5)CC4)c3C2=O)C(=O)N1 (stereo not given)

- IC50 (MM1.S): 43 nM
SMILES: Nc1ccccc1NC(=O)c1ccc(COc2cccc3c2CN(C2CCC(=O)NC2=O)C3=O)cc1 (stereo not given)

- IC50 (NCI-H358): 510 nM
SMILES: C=CC(=O)N1CCN(c2nc(NCCCN3CCN(CCCNc4cccc5c4C(=O)N(C4CCC(=O)NC4=O)C5=O)CC3)nc3cc(Cl)c(-c4cc(O)cc5ccccc45)c(F)c23)CC1 (stereo not given)

- EC50 [2]: 97 nM
SMILES: CN(C)C(=O)c1cn(C2CCCC2)c2cnc(Nc3ccc(N4CCN(c5cn(CCCCCNc6cccc7c6C(=O)N(C6CCC(=O)NC6=O)C7=O)nn5)CC4)cn3)nc12 (stereo not given)

- EC50 [18]: 1.9 nM
SMILES: O=C(CCCCCCC(=O)N/N=C/c1ccc(OCCCC#Cc2cccc3c2CN(C2CCC(=O)NC2=O)C3=O)cc1)NO (stereo not given)

- EC50 [21]: > 125 nM
- EC50 [22]: > 125 nM
- EC50 [23]: 25 nM
- EC50 (MV4-11): 300 nM
SMILES: Cc1ncsc1-c1ccc2c(c1)OCCOCCO[C@H](NC(=O)C[C@@H]1N=C(c3ccc(Cl)cc3)c3c(sc(C)c3C)-n3c(C)nnc31)COCCOCCOCC(=O)N[C@H](C(C)(C)C)C(=O)N1C[C@@H](O)C[C@@H]1C(=O)NC2

- EC50 [24]: 0.87 nM
SMILES: Cc1sc2c(c1C)C(c1ccc(Cl)cc1)=N[C@@H](CC(=O)NCCCCCNC(=O)COc1ccc(C3CCC(=O)NC3=O)cc1)c1nnc(C)n1-2 (stereo not given in full)

- EC50 [26]: 5.1 nM
SMILES: CC(=O)C1=C(O)N(C2CCCC2)c2nc(Nc3ccc(N4CCN(CCOCCOCCOc5cc(-c6scnc6C)ccc5CNC(=O)[C@@H]5C[C@@H](O)CN5C(=O)C(NC(=O)C5(F)CC5)C(C)(C)C)CC4)cn3)ncc2C1C (stereo not given in full)
